Experimental data taken from patent EP0640088B1, “NOVEL TRICYCLIC THIAZOLO AND THIAZINO DERIVATIVES AND ANTI-VIRAL MEDICAMENTS CONTAINING THEM” (BOEHRINGER MANNHEIM GMBH, priority 1992, dated 1993).
pIC50: −log10 of the molar value.

Each compound was assayed against T1, RT aus HIV-1 (Human immunodeficiency virus type 1 group M subtype B, UniProt P04585) (assay: Inhibition of reverse transcriptase (RT), screening test system measuring [3H]-thymidine-5'-triphosphate incorporation). Details: not given.
T1 construct: die gereinigte RT aus HIV-1; made in house; host or cells: E. coli
Type: biochemical
Excerpt: Hemmung der Reversen Transkriptase (RT)
Das Screeningtestsystem beinhaltet die gereinigte RT aus HIV-1, die durch gentechnologische Methoden in E. coli exprimiert wurde, sowie die Komponenten des Initiationskomplexes, wie die in-vitro-Transkripte des HIV-LTR's mit der benachbarten Primer Binding Site als Template und einem zur Primer Binding Site komplementären 18mer Oligonukleotid als Primer. Gemessen wurde der [^3H]-Thymidin-5'-triphosphat-Einbau durch Auszählen im β-Counter.

Row | SMILES | pIC50
1 | CN1C(=O)N2CCSC2(c2ccccc2)c2ccccc21 (stereo not shown) [Beispiel 6, 6-Methyl-10b-phenyl-2,3,6,10b-tetrahydro-5H-thiazolo [3,2-c]quinazolin-5-on] | 5.21
2 | O=C1Nc2ccccc2C2(c3ccccc3)SCCCN12 (stereo not shown) [Beispiel 2, 11b-Phenyl-3,4,7,11b-tetrahydro-2H,6H-[1,3]thiazino[3,2-c]quinazolin-6-on] | 6.29
3 | O=C1Nc2ccccc2C2(c3ccccc3)SCCN12 (stereo not shown) [Beispiel 1 b, 10b-Phenyl-2,3,6,10-tetrahydro-5H-thiazolo[3,2-c]quinazolin-5-on] | 6.33
4 | Cc1cccc(C23SCCN2C(=O)Nc2ccccc23)c1 (stereo not shown) [Beispiel 5 b, 10b-(3-Methylphenyl)-2,3,6,10b-tetrahydro-5H-thiazolo[3,2-c]quinazolin-5-on] | 7.52
5 | S=C1Nc2ccccc2C2(c3ccccc3)SCCN12 (stereo not shown) [Beispiel 7, 10b-Phenyl-2,3,6,10b-tetrahydro-5H-thiazolo[3,2-c]quinazolin-5-thion] | 7.52
6 | Cc1cccc(C23SCCN2C(=O)Nc2ccccc23)n1 (stereo not shown) [Beispiel 5 f, 10b-(6-Methyl-2-pyridyl)-2,3,6,10b-tetrahydro-5H-thiazolo[3,2-c]quinazolin-5-on] | 6.70

Same assay, conditions: purified recombinant RT from HIV-1 expressed in E. coli; HIV-LTR in-vitro transcript as template, 18mer oligonucleotide primer; [3H]-TTP incorporation, β-counter; read-out: Hemmung der HIV-RT IC50

Row | SMILES | pIC50
7 | O=C1Nc2ccc(Cl)cc2C2(c3ccccc3)SCCN12 (stereo not shown) [Beispiel 4, 9-Chlor-10b-phenyl-2,3,6,10b-tetrahydro-5H-thiazolo[3,2-c]quinazolin-5-on] | 7.52
